According to patent US7268231B2, “1,5-Naphthyridine azolinone” (Hoffmann-La Roche Inc., priority 2004, dated 2007):
pKi: −log10 of the molar value.

Molecular target: T1, recombinant human CDK1/Cyclin B complex (Homo sapiens, UniProt P06493)
T1 construct: made in house; host or cells: High Five insect cells (baculovirus) for CDK1/GST-cyclin B; M15 E. coli for the Rb substrate
Experiment: CDK1/Cyclin B kinase assay (FlashPlate or HTRF)
Type: biochemical
Conditions: Rb protein substrate, Ki=IC50/(1+[S]/Km)
Procedure: To determine inhibition of CDK1 activity, either FlashPlate™ (NEN™-Life Science Products) assay or HTRF assay was performed. Both types of kinase assays were carried out using recombinant human CDK1/Cyclin B complex. GST-cyclinB (GST-cycB) and CDK1 cDNA clones in baculovirus vectors were provided by Dr. W. Harper at the Baylor College of Medicine, Houston, Tex. Proteins were co-expressed in High Five™ insect cells and the complex was purified on glutathione Sepharose resin (Pharmacia, Piscataway, N.J.) as previously described (Harper, J. W. et al. Cell 1993, 75, 805-816). A 6×-Histidine tagged truncated form of retinoblastoma (Rb) protein (amino acid 386-928) was used as the substrate for the CDK1/Cyclin B assay (the expression plasmid was provided by Dr. Veronica Sullivan, Department of Molecular Virology, Roche Research Centre, Welwyn Garden City, United Kingdom). The Rb protein is a natural substrate for phosphorylation by CDK1 (see Herwig and Strauss Eur. J. Biochem. Vol. 246 (1997) pp. 581-601 and the references cited therein). The expression of the 62Kd protein was under the control of an IPTG inducible promoter in an M15 E. coli strain. Cells were lysed by sonication and purification was carried out by binding lysates at pH 8.0 to a Ni-chelated agarose column pretreated with 1 mM imidazole. The resin was then washed several times with incrementally decreasing pH buffers to pH 6.0, and eluted with 500 mM imidazole. Eluted protein was dialysed against 20 mM HEPES pH 7.5, 30% glycerol, 200 mM NaCl, and 1 mM DTT. Purified Rb fusion protein stocks were quantitated for protein concentration, aliquoted, and stored at −70° C.
For the FlashPlate kinase assay, 96-well FlashPlates were coated with Rb protein at 10 μg/ml, using 100 μl per well. Plates were incubated at 4° C. overnight or at room temperature for 3 hours on a shaker. To control for nonspecific phosphorylation, one row of wells was coated with 100 μl/well coating buffer (20 mM HEPES, 0.2 M NaCl). Plates were then washed twice with wash buffer (0.01% Tween 20 in phosphate-buffered saline). Compounds to be tested (“test compounds”) were added to the wells at 5× final concentration. Reactions were initiated by immediate addition of 40 μl reaction mix (25 mM HEPES, 20 mM MgCl2, 0.002% Tween 20, 2 mM DTT, 1 μM ATP, 4 nM 33P-ATP) and a sufficient amount of enzyme to give counts that were at least 10-fold above background. Plates were incubated at room temperature on a shaker for 30 minutes. Plates were washed four times with the wash buffer, sealed, and counted on the TopCount scintillation counter (Packard Instrument Co., Downers Grove, Ill.]. The percent inhibition of Rb phosphorylation, which is a measure of the inhibition of CDK activity, was determined according to the following formula:
[formula] where “test compound” refers to the average counts per minute of the test duplicates, “nonspecific” refers to the average counts per minute when no CDK1/Cyclin B, etc., was added, and “total” refers to the average counts per minute when no compound was added. […] The value of the inhibitor constant Ki is calculated by the following: Ki=IC50/(1+[S]/Km), where [S] is the ATP concentration and Km is Michaelis constant.
The Homogeneous Time Resolved Fluorescence (HTRF) kinase assay was carried out in 96-well polypropylene plates (BD Biosciences, Bedford, Mass.). […]

T1 sequence (P06493 whole entry): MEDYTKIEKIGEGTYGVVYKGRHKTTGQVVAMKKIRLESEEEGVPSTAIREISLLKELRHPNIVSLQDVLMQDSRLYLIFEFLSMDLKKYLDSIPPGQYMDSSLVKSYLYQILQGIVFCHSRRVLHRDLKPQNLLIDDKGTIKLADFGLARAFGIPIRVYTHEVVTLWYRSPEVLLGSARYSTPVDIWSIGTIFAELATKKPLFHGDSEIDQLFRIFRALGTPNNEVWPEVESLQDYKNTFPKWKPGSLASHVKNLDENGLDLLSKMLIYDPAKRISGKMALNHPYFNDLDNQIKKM
T1 sequence (P14635 whole entry partner): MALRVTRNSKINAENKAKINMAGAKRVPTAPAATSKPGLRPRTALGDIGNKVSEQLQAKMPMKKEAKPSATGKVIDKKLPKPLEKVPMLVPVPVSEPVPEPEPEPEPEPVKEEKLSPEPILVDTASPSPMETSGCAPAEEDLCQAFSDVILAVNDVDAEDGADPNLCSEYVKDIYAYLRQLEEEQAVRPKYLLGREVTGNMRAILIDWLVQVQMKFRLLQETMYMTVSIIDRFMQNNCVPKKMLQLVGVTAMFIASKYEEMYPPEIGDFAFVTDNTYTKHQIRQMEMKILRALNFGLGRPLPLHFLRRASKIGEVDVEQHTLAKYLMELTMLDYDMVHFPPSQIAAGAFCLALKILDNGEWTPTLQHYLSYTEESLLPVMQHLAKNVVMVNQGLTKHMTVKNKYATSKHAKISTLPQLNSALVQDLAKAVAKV

SMILES	pKi
NC1=NC(=O)/C(=C/c2ccc3ncccc3n2)S1 [Example 4, 2-Amino-5-[1,5]naphthyridin-2-ylmethylene-thiazol-4-one]	5.33
Cc1cccc(Cl)c1CNC1=NC(=O)/C(=C/c2ccc3ncccc3n2)S1 [Example 12, 2-(2-Chloro-6-methyl-benzylamino)-5-[1,5]naphthyridin-2-ylmethylene-thiazol-4-one]	7.50
O=C1N=C(NCc2ccc(F)c(Cl)c2)S/C1=C\c1ccc2ncccc2n1 [Example 8, 2-(3-Chloro-4-fluoro-benzylamino)-5-[1,5]naphthyridin-2-ylmethylene-thiazol-4-one]	6.55

Now from value to compound:

pKi	SMILES
5.93	CC(=O)NC1=NC(=O)/C(=C/c2ccc3ncccc3n2)N1 [Example 16, N-(5-[1,5]Naphthyridin-2-ylmethylene-4-oxo-4,5-dihydro-1H-imidazol-2-yl)-acetamide]
6.13	O=C1N=C(NCc2ccc(C(F)(F)F)cc2C(F)(F)F)N/C1=C\c1ccc2ncccc2n1 [Example 20, 2-(2,4-Bis-trifluoromethyl-benzylamino)-5-[1,5]naphthyridin-2-ylmethylene-1,5-dihydro-imidazol-4-one]
